Assay results published in patent publication US20090110673A1, “METHODS OF REDUCING CELL DEATH FOLLOWING HYPOXIA / REOXYGENATION” (THE UNIVERSITY OF CHICAGO, priority 2006, published 2009).

How the values were obtained:
[1] = test system: reactive oxygen species (ROS) in embryonic chick cardiomyocytes; assay: Intracellular ROS (DCF fluorescence) at reperfusion after simulated ischemia; type: cell-based; conditions: 0.1 μM, first 10 minutes of reperfusion; control 2.8±0.2 a.u.; n=3
Method: (§1) Ventricular embryonic chick cardiomyocytes were prepared according to published procedure. (Vanden Hoek T L, Becker L B, Shao Z, et al. Reactive oxygen species released from mitochondria during brief hypoxia induce preconditioning in cardiomyocytes, J. Biol. Chem. […]; 273:18092-18098, which is incorporated herein by reference). 10-day old chicken embryo hearts were removed, ventricular tissue minced into 0.5 mm fragments, enzymatically dispersed with 0.025% trypsin (Life Technologies, New York, N.Y.), centrifuged, 0.7×10^6 cells were pipetted onto 25 mm coverslips, and incubated with 5% CO2. Coverslips were checked for non-muscle cell contamination. Experiments were performed with 3-5 day cardiac cell cultures, by which time a synchronously contracting layer of cells could be visualized and viability exceeded 95%.
(§2) Coverslips with contracting cells were placed in a 1.2 mL Sykes-Moore perfusion chamber (Bellco Glass Inc., Vineland, N.J.). The chamber and inflow tubing were maintained at 37° C. Perfusate was supplied to the chamber (0.25 ml/min) via stainless steel tubing to minimize diffusive entry of ambient O2.
(§3) Normoxic perfusate used for baseline conditions and for reperfusion subsequent to ischemia contained oxygenated balanced salt solution (BSS) with a PO2 OF 149 torr, PCO2 of 40 torr, pH of 7.4, and [K]^+ of 4.0 mEq/L, and glucose (5.6 mM). To simulate ischemia, the perfusate contained BSS with 2-deoxyglucose (2-DOG) (20 mM) rather than glucose and [K]^+ of 8.0 mEq/L. The ischemic perfusate was equilibrated with 80% N2 and 20% CO2 prior to use to produce a PO2 of ˜5 torr, a PCO2 of 144 torr and a final pH of 6.8.
Intracellular oxidant stress due to ROS was monitored real time with the intracellular probe 2′,7′-dichlorofluorescin diacetate (DCFH-DA, 5 μM, Molecular Probes, Eugene, Oreg.) as described in published literature (Vanden Hoek, F L, et al., Reactive oxygen species released from mitochondria during brief hypoxia induce preconditioning in cardiomyocytes, J. Biol. Chem. […]; 273:18092-18098, which is incorporated by reference herein; Vanden Hoek, T L, et al, Preconditioning in cardiomyocytes protects by attenuating oxidant stress at reperfusion, Circ Res 2000; 86:534-540, which is incorporated by reference herein; Vanden Hoek, T L, Reperfusion, not simulated ischemia initiates intrinsic apoptosis injury in chick cardiomyocytes Am J. Physiol Heart Physiol 2003; 284:H141-150, which is incorporated by reference herein). DCFH-DA is cleaved by cellular esterases upon entry into the cells, trapping the nonfluorescent 2′,7′-dichlorofluorescin (DCFH) inside. ROS, particularly hydrogen peroxide (H2O2) and hydroxyl radical generate the fluorescent product dichlorofluorescein (DCF) by causing the oxidation of DCFH. Increases in DCF fluorescence result from DCFH oxidation to DCF. DCF fluorescence was measured at an excitation wavelength of 480 nm, and a 520 nm band pass emission filter. Attention was focused on the maximal DCF fluorescence intensity value during the first minutes of reperfusion for comparison. All measurements were expressed in arbitrary units (a.u.) of fluorescence.
(§4) For each experiment a field of about 500 cells was observed. Treatment and control groups were matched in sets containing cells isolated and cultured on the same day so as to eliminate variability due to cell batch. Additional 25 mm coverslips were used for replicate experiments (“n”). Results are reported as means plus or minus S.E.M. and two-tailed unpaired t-tests comparing similar time points throughout ischemia and reperfusion were used as tests of significance, with p<0.05 considered to be significant.

[2] = test system: mitochondrial respiration; assay: Decrease of mitochondrial respiration; conditions: dose administered to achieve protection
[3] = test system: Ventricular embryonic chick cardiomyocytes; assay: Cell death (propidium iodide viability assay) after simulated ischemia/reperfusion; type: cell-based; conditions: first 10 minutes of reperfusion, control 47.1±3.0%, n=5
Method: Ventricular embryonic chick cardiomyocytes were prepared according to published procedure. […] Coverslips were checked for non-muscle cell contamination.
as §2
Cell viability was assessed with the fluorochrome propidium iodide (PI) (5 μM, Molecular Probes, Eugene, Oreg.). PI is excluded from viable cells, but enters cells and binds to chromatin after loss of cell membrane integrity. The cells then become highly fluorescent (excitation wavelength of 540 nm and a 590 nm band pass emission filter). PI was used to quantify cell death throughout the entire time of each experiment. […] All cells in the field studied were stained with PI at the end of the experiment by permeabilizing the cells with digitonin (300 μM). Percent cell death was then calculated as the PI fluorescence at any given time point relative to the maximal fluorescence value seen after digitonin exposure.
as §4

[4] = test system: Ventricular embryonic chick cardiomyocytes; assay: Return of synchronous cell contraction after simulated ischemia/reperfusion; type: cell-based; conditions: 0.1 μM, first 10 minutes of reperfusion; control 0/7
Method: as §1, §3
Contractions were assessed by monitoring synchronous movement within the same field of cells as previously reported. A return of contraction following simulated ischemia/reperfusion was indicated when contractions could be seen throughout the field of cells following the three hour period of reperfusion.

## O=C(O)c1ccc2cc3ccccc3cc2c1 [2-anthracene-carboxylic acid]
[1]
  maximal DCF fluorescence intensity: 1.7±0.1 a.u.
[2]
  decrease of mitochondrial respiration: 10-15%
[3]; 0.1 μM
  I/R induced cell death: 26.1±4.0%
[3]; 1 μM as printed in Example 4
  cell death: 26.1±4.0%
[4]
  return of synchronous contractions (groups with return/total): 5/5
